According to patent publication US8952024B2, “Herbicidal pyrimidone derivatives” (E I du Pont de Nemours and Company, priority 2009, dated 2015):

Legend:
Assay in all cases: Test B pre-/postemergence plant response
Assay type in all cases: in vivo
[1] = tested on: galium (catchweed bedstraw, Galium aparine); conditions: Preemergence; for Galium plant response rating: 250 g ai/ha, 0 to 100 scale
How it was run: (§1)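 Each species received compound formulated in non-phytotoxic solvent with surfactant, either at planting into a loam and sand blend or as a foliar spray once plants reached 2 to 18 cm in peat-based medium. Plants stayed in the greenhouse 13 to 15 days before visual evaluation against controls, scored 0 (no effect) to 100 (complete control).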

[2] = tested on: nightshade (eastern black nightshade, Solanum ptycanthum); conditions: Preemergence; for Nightshade plant response rating: 250 g ai/ha, 0 to 100 scale
How it was run: as §1

[3] = tested on: wild oat (Avena fatua); conditions: for Oat, Wild plant response rating (0 to 100 scale): 0 is no effect; for Oat, Wild plant response rating: 0 to 100 scale
How it was run: as §1

[4] = tested on: sunflower (common oilseed sunflower, Helianthus annuus); conditions: Preemergence; for Sunflower plant response rating: 250 g ai/ha, 0 to 100 scale
How it was run: as §1

[5] = 31 g ai/ha, scale 0 to 100 (0 no effect, 100 complete control)
[6] = 62 g ai/ha, scale 0 to 100 (0 no effect, 100 complete control)
[7] = 125 g ai/ha, scale 0 to 100, 0 no effect, 100 complete control
[8] = 31 g ai/ha, postemergence, scale 0 to 100, 0 is no effect, 100 is complete control
[9] = 62 g ai/ha, postemergence, 100 is complete control, 13 to 15 days
[10] = Postemergence, 250 g ai/ha, scale 0 to 100 (0 no effect, 100 complete control)
[11] = Preemergence, 31 g ai/ha, scale 0 to 100 (0 no effect, 100 complete control)
[12] = Preemergence, 62 g ai/ha, scale 0 to 100 (0 no effect, 100 complete control)
[13] = Preemergence, 125 g ai/ha, scale 0 to 100, 0 no effect, 100 complete control
[14] = Postemergence, 125 g ai/ha, scale 0 to 100 (0 no effect, 100 complete control)

SMILES	Plant response rating, Galium [1, 5]	Plant response rating, Galium [1, 6]	Plant response rating, Galium [1, 7]	Galium plant response rating [1]	Plant response rating, Nightshade [2, 5]	Plant response rating, Nightshade [2, 6]	Plant response rating, Nightshade [2, 7]	Nightshade plant response rating [2]	Plant response rating, Oat, Wild [3, 8]	Oat, Wild plant response rating (0 to 100 scale) [3, 9]	Plant response rating, Oat, Wild [3, 10]	Plant response rating, Oat, Wild [3, 11]	Plant response rating, Oat, Wild [3, 12]	Plant response rating, Oat, Wild [3, 13]	Oat, Wild plant response rating ([3]; Preemergence, 250 g ai/ha)	Plant response rating, Sunflower [4, 5]	Plant response rating, Sunflower [4, 6]	Plant response rating, Sunflower [4, 7]	Sunflower plant response rating [4]	Plant response rating, Oat, Wild [3, 14]	also measured
CCCn1c(-c2cccs2)ncc(C(=O)C2=C(O)CCCC2=O)c1=O [Compound 77]	0	20	85	90	98	98	98	100	0	5	5	0	0	0	0	60	75	75	85	–	Plant response rating, Oat, Wild ([3]; Postemergence, 125 g ai/ha, visual rating after 13 to 15 days, scale 0 (no effect) to 100 (complete control)): 5
COCCn1c(-c2cc(F)cc(F)c2)ncc(C(=O)C2=C(O)CCCC2=O)c1=O [Compound 119]	65	85	90	100	90	98	98	100	50	60	95	0	45	50	80	40	60	70	85	95	–
COCCCn1c(-c2cc(F)cc(F)c2)ncc(C(=O)C2=C(O)CCCC2=O)c1=O [Compound 120]	80	90	95	98	90	95	95	98	50	80	95	0	10	65	65	45	–	85	95	80	–
COc1ccc(-n2c(-c3ccccc3)ncc(C(=O)C3=C(O)CCCC3=O)c2=O)cc1OC [Compound 218]	60	80	95	100	98	98	100	100	–	–	–	0	0	0	0	75	80	90	95	–	Plant response rating, Oat, Wild ([3]; Postemergence, 31 g ai/ha, 0 to 100 scale (0 no effect, 100 complete control)): 40; Plant response rating, Oat, Wild ([3]; Postemergence, 62 g ai/ha, scale 0 to 100 (0 no effect, 100 complete control)): 45; Plant response rating, Oat, Wild ([3]; Postemergence, 250 g ai/ha, scale 0 to 100 (0 no effect, 100 complete control), 13 to 15 days): 60
